Results: patent US9409975B2, “Antibody binding microbial heparin binding motif to retard or prevent microbial biofilm formation on implanted medical devices” (priority 2012, dated 2016)
“Also recorded” adds a separate entry of the source.

Tested on: Candida albicans BWP17 wt planktonic growth
Assay: Growth curves and doubling times in presence or absence of soluble heparin
Type: cell-based
Settings: 100 units/ml heparin
Description: For growth curves in the presence or absence of soluble heparin, a single colony of BWP17 wt was inoculated into 3 ml YPD medium and incubated overnight at 30° C. with shaking at 225 rpm. Overnight cultures were diluted to an OD600 of 0.1 in 5 ml of YPD, RPMI-MOPS, RPMI-HEPES or CSM in a 50 ml conical polypropylene tube. Preservative-free pharmaceutical heparin (1000 units/ml) was added to yield a final concentration of 100 units/ml in the heparin-treated samples. Cultures were grown at 30° C. with shaking and OD600 measured periodically. Doubling times (td) were calculated based on the equation td=ln 2/μ (μ=specific growth rate (48). One hundred units/ml heparin, the concentration recommended to prevent clotting of central venous catheters (20), had no effect on doubling times of planktonic yeast cells grown in YPD, RPMI-HEPES, RPMI-MOPS or CSM, as shown in FIGS. 2A and 2B.
A single copy of Int1, including 1450 bp upstream and 548 bp downstream from the Int1 open reading frame (www.candidagenome.org, Assembly 21), was integrated into the hisG locus of the int1−/− strain VBIDM2 (54) to produce the reconstituted strain KO509. Briefly, a copy of Int1 was generated by PCR, using primers 1 and 2 with BWP17 wt DNA as template and cloned into the SacI/MluI sites of pGEMHIS (51) to create pKO509. pKO509 was digested with SwaI and transformed into VBIDM2 to create the reconstituted strain KO509. PCR-mediated overlap extension mutagenesis (55) was used to produce copies of Int1 mutated at putative heparin binding domains. Briefly, primer pairs 1+3 and 2+4 (or 1+5 and 2+6) were used to produce two overlapping fragments of INT1 in which putative heparin binding domains were mutated (FKKRFFKL (SEQ ID NO: 2)→FKAAFFKL (SEQ ID NO: 53) or KQKKHQ (SEQ ID NO: 64)→KQAAHQ (SEQ ID NO: 63)), and a full length mutated sequence generated in a third […] using primers 1+2 with the fragments as template. […] Percent binding of each mutant to heparin in the ELISA assay was compared to the wild type according to the formula [Absorbance595 mutant]/[Absorbance595 wild type]×100.

Q: With heparin as the substance, how does the “growth curves in presence or absence of soluble heparin” value read?
A: identical

Q: And the “doubling times of wild type, Δint1 mutant, INT1 reintegrant and Motif 1, Motif 4, Motifs 1 and 4 reintegrants with and without heparin” value (30° C., RPMI-HEPES)?
A: no difference

Q: What about the “effect on doubling times of planktonic yeast cells” value (30° C., YPD, RPMI-HEPES, RPMI-MOPS or CSM) of the same substance?
A: no effect; also recorded: identical
